Laboratory results from patent US7157498B2, “Diamines having a CaSR modulating activity” (Centre National de la Recherche Scientifique (CNRS), priority 2000, dated 2007).

Columns and labels:
CaSR [1] = biological target: T1, CaSR (Rattus norvegicus, UniProt P48442); test: Accumulation of tritiated inositol phosphates [3H]IP induced by 9 mM extracellular Ca2+ in transfected CHO(CaSR) cells; format: cell-based; details: for remaining activity at 10 µM: 0.5 h, compounds at 10 μM, induced by 9 mM Ca2+, control = 9 mM (Ca2+)e alone = 100, mean of 2 to 4 experiments, read-out: Accumulation of [^3H]IP % relative to the control; for remaining activity at 10 µM / inhibition of the accumulation of [^3H]IP induced by 9 mM (Ca^2+)e: CHO(CaSR) cells; for inhibition of the accumulation of [^3H]IP induced by 9 mM (Ca^2+)e / type of activity on production of [^3H]IP (calcimimetic/calcilytic): 10 μM compound, 9 mM (Ca2+)e
T1 construct: expressed in transfected cells; host or cells: CHO (Chinese hamster ovary) cells
T1 sequence (P48442 20-1079): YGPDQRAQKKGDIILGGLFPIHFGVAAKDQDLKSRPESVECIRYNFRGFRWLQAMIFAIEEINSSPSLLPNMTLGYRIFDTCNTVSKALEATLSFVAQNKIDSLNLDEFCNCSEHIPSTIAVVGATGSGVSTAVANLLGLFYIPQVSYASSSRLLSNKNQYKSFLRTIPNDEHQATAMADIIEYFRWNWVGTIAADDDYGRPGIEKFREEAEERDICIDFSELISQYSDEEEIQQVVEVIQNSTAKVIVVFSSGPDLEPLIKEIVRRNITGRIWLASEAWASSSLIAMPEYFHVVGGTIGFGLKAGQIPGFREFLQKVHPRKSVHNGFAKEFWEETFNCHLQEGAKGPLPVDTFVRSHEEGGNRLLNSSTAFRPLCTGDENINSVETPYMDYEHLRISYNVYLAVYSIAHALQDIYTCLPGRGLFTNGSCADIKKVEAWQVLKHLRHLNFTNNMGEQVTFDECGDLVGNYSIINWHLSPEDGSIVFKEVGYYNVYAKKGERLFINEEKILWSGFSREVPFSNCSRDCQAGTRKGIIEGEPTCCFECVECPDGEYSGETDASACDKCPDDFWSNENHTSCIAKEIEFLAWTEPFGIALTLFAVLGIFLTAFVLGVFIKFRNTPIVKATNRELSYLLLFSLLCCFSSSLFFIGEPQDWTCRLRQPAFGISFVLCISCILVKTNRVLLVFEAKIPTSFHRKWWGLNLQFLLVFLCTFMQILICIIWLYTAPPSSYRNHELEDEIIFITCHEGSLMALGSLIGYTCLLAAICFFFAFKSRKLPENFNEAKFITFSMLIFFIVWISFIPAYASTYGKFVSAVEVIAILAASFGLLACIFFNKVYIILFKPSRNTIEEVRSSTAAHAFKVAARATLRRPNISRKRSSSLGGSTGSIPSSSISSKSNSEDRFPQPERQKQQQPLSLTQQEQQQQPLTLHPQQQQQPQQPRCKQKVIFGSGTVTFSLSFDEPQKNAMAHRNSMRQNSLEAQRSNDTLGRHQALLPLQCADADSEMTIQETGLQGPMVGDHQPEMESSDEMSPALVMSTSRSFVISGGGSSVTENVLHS
From the text: Complementary DNA encoding rat CaSR has been isolated from a rat striatum cDNA library (Ruat et al., Proc. Natl. Acad. Sci., 1995, vol. 92, p. 3161–3165). This receptor is identical with respect to its amino acid sequence to that expressed in the other tissues. Transfected Chinese hamster ovary_(CHO) cells expressing rat CaSR(CHO(CaSR)) have been characterized and the chemical signals (second messengers) induced by the activation of this receptor have been analyzed. Thus, a biochemical test which makes it possible to measure the accumulation of tritiated inositol phosphates [^3H]IP in response to the activation of the receptor has been developed (Ruat et al., J. Biol. Chem., 1996, vol. 271, p. 5972–5975; Ferry et al., Biochem. Biophys. Res. Commun., 1997, vol. 238, p. 866–873).
The technique for measuring the accumulation of tritiated inositol phosphates [^3H]IP which is used is that described in Ruat et al., J. Biol. Chem., 1996, vol. 271, p. 5972-5975. Only the mode of incubating the compounds is modified. After a preincubation of 15 min of the compounds according to the invention in the presence of a basal concentration of (Ca^2+)e equal to 2 mM, the compounds are incubated for 30 min in the presence of a (Ca^2+)e concentration of 4 or 9 mM. The results, mean of 2 to 4 independent experiments each carried out in triplicate, are grouped together in Table 2.
The activity of the compounds is expressed as a percentage of the control activity measured in the presence of (Ca^2+)e alone of concentration 4 mM or 9 mM.

[2] = test system: cell proliferation in the parathyroid gland; details: rat model reproducing chronic renal insufficiency; cited from earlier work
[3] = clinical trials Phase I-II; cited from earlier work
CHO(WT*) cells = test: Specificity: [3H]IP accumulation in control CHO(WT*) cells not expressing CaSR, various calcium, with or without ATP; format: cell-based, Chinese hamster; details: PHD 263 10 μM
Procedure: (§1) To assess the specificity of the antagonist activity of the molecules according to the invention, the effect of one of them, PHD 263, was studied under various calcium conditions, in the presence or otherwise of ATP on CHO(WT*) and CHO(CaSR) cells. […] The accumulation of tritiated inositol phosphates is expressed as a percentage of the basal level observed in the presence of 2 mM Ca^2+ (100) in the CHO(WT*) or CHO(CaSR) cells.
PHD 263 (10 μM) has the same effect on the [^3H]IP response in the CHO(WT*) cells in the presence of 2 or 4 mM calcium, indicating an absence of a nonspecific effect of the compound linked to the variation of [Ca^2+]e.

CaSR [4] = biological target: T1, CaSR; test: Specificity: [3H]IP accumulation by compound alone in CHO(CaSR) cells, relative to basal level at 2 mM Ca2+; format: cell-based; details: compound alone at 10 μM; CHO(CaSR) cells (sentence also names control CHO(WT*) cells)
Procedure: as §1

COc1ccc(OC)c(S(=O)(=O)NC2CCCC[C@@H]2NC(C)c2cccc3ccccc23)c1 (some centres unmarked) [AK 115]
remaining activity at 10 µM (CaSR [1]): 100 ± 4%

CC(N[C@H]1CCCCC1NS(=O)(=O)c1cccc(Cl)c1)c1cccc2ccccc12 (some centres unmarked) [AK 116]
remaining activity at 10 µM (CaSR [1]): 40 ± 5%

CC(N[C@H]1CCCCC1NS(=O)(=O)c1ccc(Cl)c(Cl)c1Cl)c1cccc2ccccc12 (some centres unmarked) [AK 117]
remaining activity at 10 µM (CaSR [1]): 42 ± 5%

COc1cccc([C@@H](C)NCCCc2ccccc2Cl)c1 [NPS-R-568]
reduction of cell proliferation observed in the parathyroid gland [2]: 20–50%
bioavailability [3]: low bioavailability

COc1ccc(S(=O)(=O)NC2CCCC[C@@H]2NC(C)c2cccc3ccccc23)cc1.Cl (some centres unmarked) [PHD 263, N1-(4-methoxybenzenesulfonyl)-N-2-[1-(1-naphthyl)ethyl]cyclohexane-1,2-diamine]
inhibition of the accumulation of [^3H]IP induced by 9 mM (Ca^2+)e (CaSR [1]): 64%
remaining activity at 10 µM (CaSR [1]): 37 ± 5%
effect on the ATP-induced [^3H]IP response (CHO(WT*) cells; CHO(WT) cells, in the presence of ATP): adds to that of ATP
effect on the [^3H]IP response at 2 versus 4 mM calcium (CHO(WT*) cells; CHO(WT*) cells, 2 or 4 mM calcium): same effect
melting point: 135 to 140 °C (dec.)
accumulation of [^3H]IP as percentage of the basal level observed at 2 mM Ca2+ (100) (CaSR [4]): 124±10%

CC(N[C@H]1CCCCC1NCc1ccccc1Cl)c1cccc2ccccc12.Cl.Cl (some centres unmarked) [PHD 346]
type of activity on production of [^3H]IP (calcimimetic/calcilytic) (CaSR [1]): calcimimetic activity
remaining activity at 10 µM (CaSR [1]): 110 ± 6%

CC(N[C@H]1CCCCC1NCc1ccc(F)cc1)c1cccc2ccccc12.Cl.Cl (some centres unmarked) [PHD 348]
type of activity on production of [^3H]IP (calcimimetic/calcilytic) (CaSR [1]): calcimimetic activity
remaining activity at 10 µM (CaSR [1]): 119 ± 12%

COc1ccc(S(=O)(=O)NC2CCCC[C@@H]2NC(C)c2cccc3ccccc23)cc1OC (some centres unmarked) [PHD 349]
remaining activity at 10 µM (CaSR [1]): 64 ± 5%

CC(N[C@H]1CCCCC1NS(=O)(=O)c1ccccc1Cl)c1cccc2ccccc12 (some centres unmarked) [PHD 350]
inhibition of the accumulation of [^3H]IP induced by 9 mM (Ca^2+)e (CaSR [1]): 25%
remaining activity at 10 µM (CaSR [1]): 74 ± 2%

CC(N[C@H]1CCCCC1NS(=O)(=O)c1ccc([N+](=O)[O-])cc1)c1cccc2ccccc12 (some centres unmarked) [PHD 397]
remaining activity at 10 µM (CaSR [1]): 43 ± 1%

CC(N[C@H]1CCCCC1NS(=O)(=O)c1ccc(OC(F)(F)F)cc1)c1cccc2ccccc12.Cl (some centres unmarked) [PHD 401]
inhibition of the accumulation of [^3H]IP induced by 9 mM (Ca^2+)e (CaSR [1]): 82%
remaining activity at 10 µM (CaSR [1]): 18 ± 3%

CC(N[C@H]1CCCCC1NS(=O)(=O)c1ccc(C(F)(F)F)cc1)c1cccc2ccccc12 (some centres unmarked) [PHD 403]
remaining activity at 10 µM (CaSR [1]): 21 ± 1%

CC(N[C@H]1CCCCC1NS(=O)(=O)c1ccc2ccccc2c1)c1cccc2ccccc12 (some centres unmarked) [PHD 404]
remaining activity at 10 µM (CaSR [1]): 39 ± 7%

CC(N[C@H]1CCCCC1NS(=O)(=O)c1ccc(Cl)cc1)c1cccc2ccccc12 (some centres unmarked) [PHD 406]
remaining activity at 10 µM (CaSR [1]): 28 ± 1%

CC(N[C@H]1CCCCC1NS(=O)(=O)c1ccccc1)c1cccc2ccccc12 (some centres unmarked) [PHD 408]
remaining activity at 10 µM (CaSR [1]): 56 ± 4%

COc1ccc(S(=O)(=O)NC2CC=CC[C@@H]2NC(C)c2cccc3ccccc23)cc1 (some centres unmarked) [PHD 511]
remaining activity at 10 µM (CaSR [1]): 75 ± 10%
